Data reported in patent publication US9493466B2, “Treatment of cancer with TOR kinase inhibitors” (Signal Pharmaceuticals, LLC, priority 2011, dated 2016).

How the values were obtained:
Assay in all cases: Growth inhibition assay for breast cancer
Assay type in all cases: cell-based
MCF10A = MCF10A (Basal, TN), 96 hours
From the text: (§1) Growth Inhibition Assay for Breast Cancer (BC) (Compound 1). All breast cancer cell lines were maintained and tested in appropriate culture media. The seeding density for each cell line was optimized to ensure assay linearity in 384-well plates.
(§2) Increasing concentrations of Compound 1 were spotted via an acoustic dispenser (EDC ATS-100) into an empty 384-well plate. Compound 1 was spotted in a 10-point serial dilution fashion (3-fold dilution) in duplicate within the plate. The dimethyl sulfoxide (DMSO) concentration was kept constant for a final assay concentration of 0.1% DMSO. Plates were replicated for use against different cell lines and testing periods. After compound plate replication, all plates were sealed (Agilent ThermoLoc) and stored at −20° C. for up to 1 month. When ready for testing, plates were removed from the freezer, thawed, and unsealed just prior to the addition of the test cell.
(§3) Prior to testing, cells were grown and expanded in culture flasks to provide sufficient amounts of starting material. Cells were then diluted to their desired densities and added directly to the Compound 1-spotted 384-well plates. Cells were allowed to grow for 96 hours at 37° C./5% CO2. At the time of setup (t0), initial cell number was assessed via a viability assay (Cell Titer-Glo) and read for luminescence. After 96 hours, cell viability of Compound 1-treated cells was assessed via Cell Titer-Glo and read for luminescence.
(§4) Cell lines were assayed for growth inhibition by Compound 1 for at least two independent tests. All data was normalized and represented as a percentage of the DMSO-treated control cells. […] The potency of Compound 1 in different subtypes of breast cancer cell lines is shown in FIG. 7A, while the correlation of Compound 1 sensitivity to ER, HER, PIK3CA, and TP53 status is shown in FIG. 7B.

DU4475 = DU4475 (Basal, TN), 96 hours
From the text: as §1, §2, §3, §4

HCC1428 = HCC1428 (Luminal, ER+), 96 hours
From the text: as §1, §2, §3, §4

AU565 = AU565 (Luminal, Her2+), 96 hours
From the text: as §1, §2, §3, §4

CAL-51 = CAL-51 (Basal, TN), 96 hours
From the text: as §1, §2, §3, §4

HCC1954 = HCC1954 (Basal, Her2+), 96 hours
From the text: as §1, §2, §3, §4

HCC1569 = HCC1569 (Basal, Her2+), 96 hours
From the text: as §1, §2, §3, §4

HCC1187 = HCC1187 (Basal, TN), 96 hours
From the text: as §1, §2, §3, §4

MDA-MB-231 = MDA-MB-231 (Basal, TN), 96 hours
From the text: as §1, §2, §3, §4

ZR-75-30 = ZR-75-30 (Luminal, Her2+), 96 hours
From the text: as §1, §2, §3, §4

MCF12A = MCF12A (Basal, TN), 96 hours
From the text: as §1, §2, §3, §4

MCF7 = MCF7 (Luminal, ER+), 96 hours
From the text: as §1, §2, §3, §4

CAL-120 = CAL-120 (Basal, TN), 96 hours
From the text: as §1, §2, §3, §4

MDA-MB-134-VI = MDA-MB-134-VI (Luminal, ER+), 96 hours
From the text: as §1, §2, §3, §4

MDA-MB-436 = MDA-MB-436 (Basal, TN), 96 hours
From the text: as §1, §2, §3, §4

MDA-MB-453 = MDA-MB-453 (Luminal, Her2+), 96 hours
From the text: as §1, §2, §3, §4

HCC1143 = HCC1143 (Basal, TN), 96 hours
From the text: as §1, §2, §3, §4

BT-474 = BT-474 (Luminal, Her2+), 96 hours
From the text: as §1, §2, §3, §4

HCC202 = HCC202 (Luminal, Her2+), 96 hours
From the text: as §1, §2, §3, §4

KPL-1 = KPL-1 (Luminal, ER+), 96 hours
From the text: as §1, §2, §3, §4

CAL-85-1 = CAL-85-1 (Basal, TN), 96 hours
From the text: as §1, §2, §3, §4

T47D = T47D (Luminal, ER+), 96 hours
From the text: as §1, §2, §3, §4

CAMA-1 = CAMA-1 (Luminal, ER+), 96 hours
From the text: as §1, §2, §3, §4

BT-20 = BT-20 (Basal, TN), 96 hours
From the text: as §1, §2, §3, §4

BT-483 = BT-483 (Luminal, ER+), 96 hours
From the text: as §1, §2, §3, §4

HCC1937 = HCC1937 (Basal, TN), 96 hours
From the text: as §1, §2, §3, §4

NCI/ADR-RES = NCI/ADR-RES (Basal, TN), 96 hours
From the text: as §1, §2, §3, §4

UACC-812 = UACC-812 (Luminal, Her2+), 96 hours
From the text: as §1, §2, §3, §4

## CO[C@H]1CC[C@H](N2C(=O)CNc3ncc(-c4ccc(C(C)(C)O)nc4)nc32)CC1 [Compound 1, 7-(6-(2-hydroxypropan-2-yl)pyridin-3-yl)-1-((1r,4r)-4-methoxycyclohexyl)-3,4-dihydropyrazino-[2,3-b]pyrazin-2(1H)-one]
MCF10A
  GI50: 147 nM
DU4475
  GI50: 1240 nM
HCC1428
  GI50: 98.4 nM
AU565
  GI50: 213 nM
CAL-51
  GI50: 119 nM
HCC1954
  GI50: 197 nM
HCC1569
  GI50: 356 nM
HCC1187
  GI50: 567 nM
MDA-MB-231
  GI50: 710 nM
ZR-75-30
  GI50: 63.4 nM
MCF12A
  GI50: 44.4 nM
MCF7
  GI50: 181 nM
CAL-120
  GI50: 700 nM
MDA-MB-134-VI
  GI50: 101 nM
MDA-MB-436
  GI50: 2990 nM
MDA-MB-453
  GI50: 143 nM
HCC1143
  GI50: 343 nM
BT-474
  GI50: 226 nM
HCC202
  GI50: 20.1 nM
KPL-1
  GI50: 97.3 nM
CAL-85-1
  GI50: 253 nM
T47D
  GI50: 55.3 nM
CAMA-1
  GI50: 146 nM
BT-20
  GI50: 330 nM
BT-483
  GI50: 21.7 nM
HCC1937
  GI50: 697 nM
NCI/ADR-RES
  GI50: 944 nM
UACC-812
  GI50: 47.8 nM
